Data reported in patent publication US8362000B2, “Azetidinyl diamides as monoacylglycerol lipase inhibitors” (Janssen Pharmaceutica NV, priority 2009, dated 2013).
Substitutions are numbered along the chain they refer to. Like-named read-outs stand apart in the source and are kept apart here.

Experiments:
[1] = target: T1, purified wild type MGL (wt-MGLL 6H-11-313) (Homo sapiens, UniProt Q99685)
T1 sequence (Q99685 1-303): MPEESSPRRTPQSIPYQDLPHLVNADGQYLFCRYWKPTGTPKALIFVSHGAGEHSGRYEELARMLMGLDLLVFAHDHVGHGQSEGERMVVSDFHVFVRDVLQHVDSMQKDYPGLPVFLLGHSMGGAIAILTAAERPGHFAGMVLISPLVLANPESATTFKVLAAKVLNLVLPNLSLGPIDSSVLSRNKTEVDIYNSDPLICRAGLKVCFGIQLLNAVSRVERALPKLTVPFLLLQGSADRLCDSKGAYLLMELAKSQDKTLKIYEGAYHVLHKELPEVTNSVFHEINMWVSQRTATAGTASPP

mutant MGL = target: T2, mutant MGL (Homo sapiens, UniProt Q99685, L169S/L176S); test: MGL ThermoFluor assay - mutant; format: binding
T2 sequence (Q99685 1-303 L169S/L176S): T1 sequence (Q99685 1-303) with L169S, L176S

[2] = ThermoFluor, compound concentration measured by qNMR, read-out: MGL mutant ThermoFluor qKd (μM) (using qNMR conc.)
[3] = compound concentration measured by qNMR, read-out: MGL mutant ThermoFluor qKd (using qNMR conc.)
[4] = ThermoFluor concentration-response, read-out: MGL mutant ThermoFluor Kd
[5] = ThermoFluor thermal stability binding assay, read-out: MGL mutant ThermoFluor Kd

Compound | IC50 [1] [nM] | Kd (mutant MGL; [2]) [µM] | other results
Cc1cc(-n2ccc3cc(C(=O)N4CC(N5CCN(C(=O)c6nccs6)CC5)C4)ccc32)ccn1 [Cpd 1410, 1-(2-Methylpyridin-4-yl)-5-({3-[4-(1,3-thiazol-2-ylcarbonyl)piperazin-1-yl]azetidin-1-yl}carbonyl)-1H-indole] | 89 | – | Kd (mutant MGL; ThermoFluor, compound concentration measured by qNMR, read-out: MGL mutant ThermoFluor qKd (using qNMR conc.)): 0.014 µM
O=C(c1ccc(-n2nccc2-c2ccc(F)cc2)cc1)N1CC(N2CCN(C(=O)c3nccs3)CC2)C1 [Cpd 1412] | 87 | – | Kd (mutant MGL; [5]): 0.241 µM
Cc1cn(-c2ccc(C(=O)N3CC(N4CCN(C(=O)c5nccs5)CC4)C3)cc2)c2ccccc12 [Cpd 1413] | 15 | 0.003 | –
Cc1cc2c(ccn2-c2ccc(F)cc2)cc1C(=O)N1CC(N2CCN(C(=O)c3nccs3)CC2)C1 [Cpd 1415] | 115 | – | Kd (mutant MGL; [3]): 0.011 µM
O=C(c1nccs1)N1CCN(C2CN(C(=O)c3cc4ccn(-c5ccc(F)cc5)c4cc3Cl)C2)CC1 [Cpd 1416] | 39 | – | Kd (mutant MGL; [3]): 0.015 µM
NC(=O)c1cc(-n2ccc3cc(C(=O)N4CC(N5CCN(C(=O)c6nccs6)CC5)C4)ccc32)ccc1F [Cpd 1418, 2-fluoro-5-[5-({3-[4-(1,3-thiazol-2-ylcarbonyl)piperazin-1-yl]azetidin-1-yl}carbonyl)-1H-indol-1-yl]benzamide] | 16 | – | Kd (mutant MGL; [4]): 0.054 µM
O=C(c1ccc2nn(-c3cccc(OC(F)(F)F)c3)cc2c1)N1CC(N2CCN(C(=O)c3cscn3)CC2)C1 [Cpd 1422] | 14 | 0.195 | –
O=C(c1ccc2c(ccn2-c2ccc(F)cc2)c1)N1CC(N2CCN(C(=O)c3ccc(Cl)s3)CC2)C1 [Cpd 1423] | 278 | 0.176 | –
O=C(c1cccc(F)c1)N1CCN(C2CN(C(=O)c3ccc4c(ccn4-c4ccc(F)cc4)c3)C2)CC1 [Cpd 1424] | 75 | 0.124 | –
O=C(c1ccc2c(ccn2-c2ccc(F)cc2)c1)N1CC(N2CCN(C(=O)c3cocn3)CC2)C1 [Cpd 1428] | 14 | 0.018 | –
O=C(c1ccc2c(ccn2-c2ccc(F)cc2)c1)N1CC(N2CCN(C(=O)c3cnco3)CC2)C1 [Cpd 1429] | 36 | 0.097 | –
O=C(c1ccc2c(c1)C(Cc1cccc(C(F)(F)F)c1)(Cc1cccc(C(F)(F)F)c1)C(=O)N2Cc1cccc(C(F)(F)F)c1)N1CC(N2CCN(C(=O)c3nccs3)CC2)C1 [Cpd 1430, 5-({3-[4-(1,3-Thiazol-2-ylcarbonyl)piperazin-1-yl]azetidin-1-yl}carbonyl)-1,3,3-tris[3-(trifluoromethyl)benzyl]-1,3-dihydro-2H-indol-2-one] | 9890 | – | Kd (mutant MGL; [4]): 50 µM
O=C(CN1C(=O)c2ccccc2S1(=O)=O)N1CC(N2CCN(C(=O)c3nccs3)CC2)C1 [Cpd 1432] | > 16700 | > 28.4 | –
O=C(CCCc1ccccc1)N1CC(N2CCN(C(=O)c3nccs3)CC2)C1 [Cpd 1434] | > 16700 | – | Kd (mutant MGL; [5]): 53.8 µM
O=C(c1ccccc1)N1CCc2cccc(C(=O)N3CC(N4CCN(C(=O)c5nccs5)CC4)C3)c2C1 [Cpd 1437] | > 16700 | – | Kd (mutant MGL; [5]): 33.3 µM
O=C(c1nc2cc(F)ccc2[nH]1)N1CC(N2CCN(C(=O)c3nccs3)CC2)C1 [Cpd 1443] | > 16700 | – | Kd (mutant MGL; [5]): > 31.2 µM
O=C(c1cscn1)N1CCN(C2CN(C(=O)c3cc4cc(Cl)ccc4o3)C2)CC1 [Cpd 1444] | > 16700 | – | Kd (mutant MGL; [5]): > 31 µM
O=C(c1cc2ccc(C(F)(F)F)cc2[nH]1)N1CC(N2CCN(C(=O)c3ccns3)CC2)C1 [Cpd 1445] | > 16700 | – | Kd (mutant MGL; [5]): > 31.2 µM
O=C(c1ccc[nH]1)N1CCN(C2CN(C(=O)c3cc4ccc(C(F)(F)F)nc4o3)C2)CC1 [Cpd 1446] | > 16700 | – | Kd (mutant MGL; [5]): 62.5 µM
O=C(c1ccc[nH]1)N1CCN(C2CN(C(=O)c3cc4ccc(C(F)(F)F)nc4[nH]3)C2)CC1 [Cpd 1447] | > 16700 | 3.33 | –
O=C(c1cscn1)N1CCN(C2CN(C(=O)c3cc4cc(Br)cnc4o3)C2)CC1 [Cpd 1448] | > 16700 | – | Kd (mutant MGL; [5]): 7.09 µM
O=C(c1cscn1)N1CC(N2CCN(C(=O)c3cc4cc(Br)cnc4o3)CC2)C1 [Cpd 1449] | > 16700 | – | Kd (mutant MGL; [5]): 3.19 µM
O=C(c1cscn1)N1CCN(C2CN(C(=O)c3cc4nc(C(F)(F)F)ccc4[nH]3)C2)CC1 [Cpd 1450] | > 16700 | 12.6 | –
Cc1cc2nc(C(=O)N3CC(N4CCN(C(=O)c5ccc[nH]5)CC4)C3)cn2cc1Br [Cpd 1451] | > 16700 | > 16.2 | –
O=C(c1cn2cc(C(F)(F)F)ccc2n1)N1CC(N2CCN(C(=O)c3nccs3)CC2)C1 [Cpd 1453] | > 16700 | 10 | –
O=C(c1nccs1)N1CCN(C2CN(C(=O)c3ncoc3-c3ccc(Cl)cc3)C2)CC1 [Cpd 1473] | > 16700 | – | Kd (mutant MGL; [5]): 6.67 µM
O=C(c1nc2cc(-c3cccnc3F)ccc2[nH]1)N1CC(N2CCN(C(=O)c3nccs3)CC2)C1 [Cpd 1476] | > 16700 | 7.21 | –

These reach a lower IC50 [1]. Values come first.

IC50 [1] [nM] | Kd (mutant MGL; [2]) [µM] | Compound | other results
< 5 | 0.011 | O=C(c1ccc(-c2cccc(C(F)(F)F)c2)cc1)N1CC(N2CCN(C(=O)c3ccc(Br)o3)CC2)C1 [Cpd 1335] | –
< 5 | – | O=C(c1nccs1)N1CCN(C2CN(C(=O)c3ccc4c(ccn4-c4ccc(F)cc4)c3F)C2)CC1 [Cpd 1348, 4-Fluoro-1-(4-fluorophenyl)-5-({3-[4-(1,3-thiazol-2-ylcarbonyl)piperazin-1-yl]azetidin-1-yl}carbonyl)-1H-indole] | Kd (mutant MGL; [3]): 0.002 µM
< 5 | – | Cc1cc(C(=O)N2CC(N3CCN(C(=O)c4nccs4)CC3)C2)cc2ccn(-c3ccc(F)cc3)c12 [Cpd 1355, 1-(4-Fluorophenyl)-7-methyl-5-({3-[4-(1,3-thiazol-2-ylcarbonyl)piperazin-1-yl]azetidin-1-yl}carbonyl)-1H-indole] | Kd (mutant MGL; [3]): 0.002 µM
< 5 | – | O=C(c1ccc2c(ccn2-c2cccc(C(F)(F)F)c2)c1)N1CC(N2CCN(C(=O)c3nccs3)CC2)C1 [Cpd 1356, 5-({3-[4-(1,3-Thiazol-2-ylcarbonyl)piperazin-1-yl]azetidin-1-yl}carbonyl)-1-[3-(trifluoromethyl)phenyl]-1H-indole] | Kd (mutant MGL; [4]): 0.002 µM
< 5 | 0.002 | O=C(c1ccc2c(ccn2-c2ccc(Cl)c(F)c2)c1)N1CC(N2CCN(C(=O)c3nccs3)CC2)C1 [Cpd 1372] | –
< 5 | 0.004 | O=C(c1ccc2c(ccn2-c2cc(F)ccc2F)c1)N1CC(N2CCN(C(=O)c3nccs3)CC2)C1 [Cpd 1373] | –
< 5 | 0.007 | O=C(c1ccc2c(cnn2-c2cccc(OC(F)(F)F)c2)c1)N1CC(N2CCN(C(=O)c3nccs3)CC2)C1 [Cpd 1374] | –
< 5 | 0.003 | Cc1cc(-n2ccc3cc(C(=O)N4CC(N5CCN(C(=O)c6nccs6)CC5)C4)ccc32)ccc1C#N [Cpd 1375, 2-Methyl-4-[5-({3-[4-(1,3-thiazol-2-ylcarbonyl)piperazin-1-yl]azetidin-1-yl}carbonyl)-1H-indol-1-yl]benzonitrile] | –
< 5 | 0.013 | O=C(c1ccc2nn(-c3cccc(OC(F)(F)F)c3)cc2c1)N1CC(N2CCN(C(=O)c3nccs3)CC2)C1 [Cpd 1376] | –
12 | – | CC(c1ccccc1)n1ncc2cc(C(=O)N3CC(N4CCN(C(=O)c5nccs5)CC4)C3)ccc21 (stereo not shown) [Cpd 1411, 1-(1-Phenylethyl)-5-({3-[4-(1,3-thiazol-2-ylcarbonyl)piperazin-1-yl]azetidin-1-yl}carbonyl)-1H-indazole] | Kd (mutant MGL; [3]): 0.001 µM
11 | – | O=C(c1nccs1)N1CCN(C2CN(C(=O)c3ccc4c(ccn4-c4ccc(F)cc4)c3Cl)C2)CC1 [Cpd 1414, 4-Chloro-1-(4-fluorophenyl)-5-({3-[4-(1,3-thiazol-2-ylcarbonyl)piperazin-1-yl]azetidin-1-yl}carbonyl)-1H-indole] | Kd (mutant MGL; [3]): 0.003 µM
< 5 | – | N#Cc1cc(-n2ccc3cc(C(=O)N4CC(N5CCN(C(=O)c6nccs6)CC5)C4)ccc32)ccc1F [Cpd 1417, 2-Fluoro-5-[5-({3-[4-(1,3-thiazol-2-ylcarbonyl)piperazin-1-yl]azetidin-1-yl}carbonyl)-1H-indol-1-yl]benzonitrile] | Kd (mutant MGL; [4]): 0.025 µM
< 5 | – | O=C(c1ccc2c(cnn2-c2cccc(C(F)(F)F)c2)c1)N1CC(N2CCN(C(=O)c3nccs3)CC2)C1 [Cpd 1419] | Kd (mutant MGL; [5]): 0.004 µM
5 | 0.08 | O=C(c1ccc2nn(-c3cccc(C(F)(F)F)c3)cc2c1)N1CC(N2CCN(C(=O)c3nccs3)CC2)C1 [Cpd 1420] | –
9 | 0.019 | O=C(c1ccc2c(ccn2-c2ccc(F)cc2)c1)N1CC(N2CCN(C(=O)c3ccc(Cl)o3)CC2)C1 [Cpd 1425] | –
< 5 | 0.029 | O=C(c1ccc2c(ccn2-c2ccc(F)cc2)c1)N1CC(N2CCN(C(=O)c3ncco3)CC2)C1 [Cpd 1426] | –
6 | 0.01 | O=C(c1ccc2c(ccn2-c2ccc(F)cc2)c1)N1CC(N2CCN(C(=O)c3ccc(F)s3)CC2)C1 [Cpd 1427] | –
